Reference: patent publication US9249345B2, “Concentrate for medical solutions, production thereof and use thereof in dialysis” (FRESENIUS MEDICAL CARE DEUTSCHLAND GMBH, priority 2010, dated 2016)

Legend:
Type in all cases: physicochemical
[1] = Storage of MgCl2×6H2O in gas-permeable concentrate container in climate chamber, Example 5; settings: 40° C., 75% relative humidity, 6 months
Experimental: MgCl2×6H2O was stored in the climate chamber at 40° C. and 75% relative humidity in a gas-permeable concentrate container.

[2] = Water uptake into concentrate container without gas barrier, Example 6; settings: 40° C., 75% relative humidity; for water uptake into the concentrate container (water content in percent by weight): after about 26 weeks; for water uptake: period of 6 months
Experimental: The water uptake into a concentrate container without a gas barrier, comprising MgCl2×6H2O or alkaline magnesium carbonate, 4MgCO3×Mg(OH)2×5H2O respectively, was compared. The concentrate containers were each exposed in the climate chamber to 40° C. and 75% relative humidity for several weeks. […] The time in weeks is plotted on the abscissa. The water content in percent by weight is plotted on the ordinate.

[3] = Caking behaviour of concentrates in containers stored in climate chamber, Examples 2-4; settings: Example 4; 40° C., 75% relative humidity, 6 months
Description: The container comprised of film material without appreciable gas-barrier properties is depicted on the left of FIG. 1. […] The container shown on the right of FIG. 1 comprised the same materials. Additionally, said film comprised a gas-barrier layer of silicon oxide. The gas permeability of said film was below 20 cm^3/(m^2·d·bar) for CO2, as measured in accordance with DIN 53380—part 4. […] 1.
The stability of a concentrate comprised of components according to the invention versus conventional components was tested. […] It was assumed that the crystal water of the glucose in conjunction with sodium chloride caused caking.

| Molecule | physical state after storage [1] | water uptake into the concentrate container (water content in percent by weight) [2] | water uptake [2] | caking [3] |
| --- | --- | --- | --- | --- |
| O.O.O.O.O.O.[Cl-].[Cl-].[Mg+2] [MgCl2×6H2O, magnesium chloride with crystal water, MgCl2×6H2O] | liquefied | ~24% | significant water uptake | – |
| OC[C@H]1OC(O)[C@H](O)[C@@H](O)[C@@H]1O (stereo partly drawn) [anhydrous glucose] | – | – | – | does not promote caking |
| alkaline magnesium carbonate, 4MgCO3×Mg(OH)2×5H2O | – | no water uptake | did not absorb any water | – |
